Results from patent US5502035A, “N-terminus modified analogs of LHRH” (Tap Holdings Inc., priority 1994, dated 1996).
Non-standard residues stand in square brackets, D forms with d. Residues, ends and D or L forms follow the SMILES beside them. *: point of attachment. Shikimoyl = O=C(C1=C[C@@H](O)[C@@H](O)[C@H](O)C1)*; dPhe(4-Cl) = N[C@H](Cc1ccc(Cl)cc1)C(=O)O; d2Nal = N[C@H](Cc1ccc2ccccc2c1)C(=O)O; Lys(iPr) = CC(C)NCCCC[C@H](N)C(=O)O; NMeY = CN[C@@H](Cc1ccc(O)cc1)C(=O)O; d3Pal = N[C@H](Cc1cccnc1)C(=O)O; Isonicotinoyl = O=C(c1ccncc1)*; Nicotinoyl = O=C(c1cccnc1)*; Picolinoyl = O=C(c1ccccn1)*; 2Furoyl = O=C(c1ccco1)*; X6 = O=C(c1ccoc1)*

target: T1, LHRH (Rattus norvegicus, UniProt P30969); assay: in vitro test for LHRH antagonist potency (pA2); assay type: cell-based; conditions: negative logarithm of the antagonist concentration required to shift the response curve produced by the agonist leuprolide to two-fold higher concentration
T1 construct: endogenous in cells; host or cells: rat pituitary cells (own knowledge of the cited Haviv 1989 method)
T1 sequence (P30969 1-327): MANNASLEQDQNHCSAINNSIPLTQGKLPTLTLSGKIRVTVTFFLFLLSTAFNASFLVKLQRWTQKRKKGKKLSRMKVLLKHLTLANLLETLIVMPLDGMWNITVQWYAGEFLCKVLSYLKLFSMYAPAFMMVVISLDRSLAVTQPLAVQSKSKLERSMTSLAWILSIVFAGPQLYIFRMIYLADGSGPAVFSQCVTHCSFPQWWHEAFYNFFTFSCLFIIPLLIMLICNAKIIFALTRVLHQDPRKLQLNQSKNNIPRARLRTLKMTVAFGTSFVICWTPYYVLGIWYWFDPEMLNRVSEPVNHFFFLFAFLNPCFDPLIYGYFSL
Procedure: Representative compounds of the present invention were evaluated in an in vitro test for LHRH antagonist potency (pA2). The test employed the method detailed in F. Haviv, et al. J. Med. Chem., 32:2340-2344 (1989). The values of pA2 are the negative logarithms of the concentration of the particular antagonist test compound required to shift the response curve produced by the agonist leuprolide to two-fold higher concentration. (Leuprolide is the LHRH agonist having the structure 5-oxo-Pro^1 -His^2 -Trp^3 -Ser^4 -Tyr^5 -D-Leu^6 -Leu^7 -Arg^8 -Pro^9 -NHEt and is disclosed and claimed in U.S. Pat. No. 4,005,063.) Typically pA2 values of 9.5 or greater are indicative of good LHRH antagonist potency, with values of 10.0 or greater being preferred.

Going from CC(C)C[C@H](NC(=O)[C@@H](CCCCNC(=O)c1cccnc1)NC(=O)[C@H](Cc1ccc(O)cc1)N(C)C(=O)[C@H](CO)NC(=O)[C@@H](Cc1cccnc1)NC(=O)[C@@H](Cc1ccc(Cl)cc1)NC(=O)[C@@H](Cc1ccc2ccccc2c1)NC(=O)CNC(=O)C1CCCO1)C(=O)N[C@@H](CCCCNC(C)C)C(=O)N1CCC[C@H]1C(=O)N[C@H](C)C(N)=O (mixture of isomers) [Example 3, N-(R,S)-Tetrahydrofur-2-oyl-Gly-D2Nal-D4ClPhe-D3Pal-Ser-NMeTyr-DLys(Nicotinyl) -Leu-Lys(N-epsilon-Isopropyl)-Pro-DAlaNH2] to CC(C)C[C@H](NC(=O)[C@@H](CCCCNC(=O)NNC(=O)c1cccnc1)NC(=O)[C@H](Cc1ccc(O)cc1)N(C)C(=O)[C@H](CO)NC(=O)[C@@H](Cc1cccnc1)NC(=O)[C@@H](Cc1ccc(Cl)cc1)NC(=O)[C@@H](Cc1ccc2ccccc2c1)NC(=O)CNC(=O)C1CCCO1)C(=O)N[C@@H](CCCCNC(C)C)C(=O)N1CCC[C@H]1C(=O)N[C@H](C)C(N)=O (mixture of isomers) [Example 11, N-(R,S)Tetrahydrofur-2-oyl-Gly-D2Nal-D4ClPhe-D3Pal-Ser-NMeTyr-DLys(Azagly-Nicotinyl) -Leu-Lys(N-epsilon-Isopropyl)-Pro-DAlaNH2], the Kb rises from 0.0158 nM to 0.038 nM (2.4-fold).

Going from CC(C)C[C@H](NC(=O)[C@@H](CCCCNC(=O)CNC(=O)c1cccnc1)NC(=O)[C@H](Cc1ccc(O)cc1)N(C)C(=O)[C@H](CO)NC(=O)[C@@H](Cc1cccnc1)NC(=O)[C@@H](Cc1ccc(Cl)cc1)NC(=O)[C@@H](Cc1ccc2ccccc2c1)NC(=O)CNC(=O)C1CCCO1)C(=O)N[C@@H](CCCNC(=N)N)C(=O)N1CCC[C@H]1C(=O)N[C@H](C)C(N)=O (mixture of isomers) [Example 27b, N-(R,S)-Tetrahydrofur-2oyl-Gly-D2Nal-D4ClPhe-D3Pal-Ser-NMeTyr-DLys(Gly-Nic)-Leu-Arg-Pro-DAlaNH 2] to CC(C)C[C@H](NC(=O)[C@@H](CCCCNC(=O)c1cccnc1)NC(=O)[C@H](Cc1ccc(O)cc1)N(C)C(=O)[C@H](CO)NC(=O)[C@@H](Cc1cccnc1)NC(=O)[C@@H](Cc1ccc(Cl)cc1)NC(=O)[C@@H](Cc1ccc2ccccc2c1)NC(=O)CNC(=O)C1CCCO1)C(=O)N[C@@H](CCCCNC(C)C)C(=O)N1CCC[C@H]1C(=O)N(C)CC(N)=O (mixture of isomers) [Example 38, N-(R,S)-Tetrahydrofur-2-oyl-Gly-D2Nal-D4ClPhe-D3Pal-Ser-NMeTyr-DLys(Nicotinyl)-Leu-Lys(Isp)-Pro-SarNH2], the Kb rises from 0.0135 nM to 0.0309 nM (2.3-fold).

First: CC(C)C[C@H](NC(=O)[C@@H](CCCCNC(=O)NNC(=O)c1ccco1)NC(=O)[C@H](Cc1ccc(O)cc1)N(C)C(=O)[C@H](CO)NC(=O)[C@@H](Cc1cccnc1)NC(=O)[C@@H](Cc1ccc(Cl)cc1)NC(=O)[C@@H](Cc1ccc2ccccc2c1)NC(=O)CNC(=O)C1CCCO1)C(=O)N[C@@H](CCCCNC(C)C)C(=O)N1CCC[C@H]1C(=O)N[C@H](C)C(N)=O (mixture of isomers) [Example 30a, N-(R,S)-Tetrahydrofur-2-oyl-Gly-D2Nal-D4ClPhe-D3Pal-Ser-NMeTyr-DLys(Azagly-2Fur)-Leu-Lys(Isp)-Pro-DAlaNH2]
Second: CC(C)C[C@H](NC(=O)[C@@H](CCCCNC(=O)c1cccnc1)NC(=O)[C@H](Cc1ccc(O)cc1)N(C)C(=O)[C@H](CO)NC(=O)[C@@H](Cc1cccnc1)NC(=O)[C@@H](Cc1ccc(Cl)cc1)NC(=O)[C@@H](Cc1ccc2ccccc2c1)NC(=O)CNC(=O)c1ccco1)C(=O)N[C@@H](CCCCNC(C)C)C(=O)N1CCC[C@H]1C(=O)N[C@H](C)C(N)=O [Example 2c, N-2-Furoyl-Gly-D2Nal-D4ClPhe-D3Pal-Ser-NMeTyr-DLys(N-epsilon-Nicotinyl) -Leu-Lys(N-epsilon-Isopropyl)-Pro-DAlaNH2] (2Furoyl-G[d2Nal][dPhe(4-Cl)][d3Pal]S[NMeY][dK](Nicotinoyl)L[Lys(iPr)]P[dA]-NH2)
The Kb of the first is 6-fold higher: 0.0479 nM for the first, 0.00794 nM for the second.

Going from CC(C)C[C@H](NC(=O)[C@@H](CCCCNC(=O)c1cccnc1)NC(=O)[C@H](Cc1ccc(O)cc1)NC(=O)[C@H](CO)NC(=O)[C@@H](Cc1cccnc1)NC(=O)[C@@H](Cc1ccc(Cl)cc1)NC(=O)[C@@H](Cc1ccc2ccccc2c1)NC(=O)CNC(=O)C1CCCO1)C(=O)N[C@@H](CCCCNC(C)C)C(=O)N1CCC[C@H]1C(=O)N[C@H](C)C(N)=O (mixture of isomers) [Example 91, N (R,S)-2-Tetrahydrofuroyl-Gly-D2Nal-D4ClPhe-D3Pal-Ser-Tyr-DLys(N-epsilon-Nicotinyl) -Leu-Lys(N-epsilon-Isopropyl)-Pro-DAlaNH2] to CC(C)C[C@H](NC(=O)[C@@H](CCCCNC(=O)c1cccnc1)NC(=O)[C@H](Cc1ccc(O)cc1)N(C)C(=O)[C@H](CO)NC(=O)[C@@H](Cc1cccnc1)NC(=O)[C@@H](Cc1ccc(Cl)cc1)NC(=O)[C@@H](Cc1ccc2ccccc2c1)NC(=O)CNC(=O)c1ccoc1)C(=O)N[C@@H](CCCCNC(C)C)C(=O)N1CCC[C@H]1C(=O)N[C@H](C)C(N)=O [Example 2d, N-3Furoyl-Gly-D2Nal-D4ClPhe-D3Pal-Ser-NMeTyr-DLys(N-epsilon-Nicotinyl) -Leu-Lys(N-epsilon-Isopropyl)-Pro-DAlaNH2] (X6-G[d2Nal][dPhe(4-Cl)][d3Pal]S[NMeY][dK](Nicotinoyl)L[Lys(iPr)]P[dA]-NH2), the Kb rises from 0.00219 nM to 0.0126 nM (5.8-fold).

First: CC(=O)N[C@H](Cc1ccc(O)cc1)C(=O)N[C@H](Cc1ccc2ccccc2c1)C(=O)N[C@H](Cc1ccc(Cl)cc1)C(=O)N[C@H](Cc1cccnc1)C(=O)N[C@@H](CO)C(=O)N(C)[C@@H](Cc1ccc(O)cc1)C(=O)N[C@H](CCCCNC(=O)c1cccnc1)C(=O)N[C@@H](CC(C)C)C(=O)N[C@@H](CCCCNC(C)C)C(=O)N1CCC[C@H]1C(=O)N[C@H](C)C(N)=O [Example 1, N-Ac-DTyr-D2Nal-D4ClPhe-D3Pal-Ser-NMeTyr-DLys(Nicotinyl)-Leu-Lys(N-epsilon- Isopropyl) -Pro-DAlaNH2] (Ac-[dY][d2Nal][dPhe(4-Cl)][d3Pal]S[NMeY][dK](Nicotinoyl)L[Lys(iPr)]P[dA]-NH2)
Second: CC(C)C[C@H](NC(=O)[C@@H](CCCCNC(=O)c1cccnc1)NC(=O)[C@H](Cc1ccc(O)cc1)N(C)C(=O)[C@H](CO)NC(=O)[C@@H](Cc1cccnc1)NC(=O)[C@@H](Cc1ccc(Cl)cc1)NC(=O)[C@@H](Cc1ccc2ccccc2c1)NC(=O)CNC(=O)c1ccncc1)C(=O)N[C@@H](CCCCNC(C)C)C(=O)N1CCC[C@H]1C(=O)N[C@H](C)C(N)=O [Example 2g, N-Isonicotinyl-Gly-D2Nal-D4ClPhe-D3Pal-Ser-NMeTyr-DLys(N-epsilon-Nicotinyl) -Leu-Lys(N-epsilon-Isopropyl)-Pro-DAlaNH2] (Isonicotinoyl-G[d2Nal][dPhe(4-Cl)][d3Pal]S[NMeY][dK](Nicotinoyl)L[Lys(iPr)]P[dA]-NH2)
The Kb of the first is 2.5-fold higher: 0.0178 nM for the first, 0.00708 nM for the second.

CC(C)C[C@H](NC(=O)[C@@H](CCCCNC(=O)c1cccnc1)NC(=O)[C@H](Cc1ccc(O)cc1)N(C)C(=O)[C@H](CO)NC(=O)[C@@H](Cc1cccnc1)NC(=O)[C@@H](Cc1ccc(Cl)cc1)NC(=O)[C@@H](Cc1ccc2ccccc2c1)NC(=O)CNC(=O)C1=C[C@@H](O)[C@@H](O)[C@H](O)C1)C(=O)N[C@@H](CCCCNC(C)C)C(=O)N1CCC[C@H]1C(=O)N[C@H](C)C(N)=O [Example 2a, N-Shikimyl-Gly-D2Nal-D4ClPhe-D3Pal-Ser-NMeTyr-DLys(N-epsilon-Nicotinyl) -Leu-Lys(N-epsilon-Isopropyl)-Pro-DAlaNH2] (Shikimoyl-G[d2Nal][dPhe(4-Cl)][d3Pal]S[NMeY][dK](Nicotinoyl)L[Lys(iPr)]P[dA]-NH2) and CC(C)C[C@H](NC(=O)[C@@H](CCCCNC(=O)c1cccnc1)NC(=O)[C@H](Cc1ccc(O)cc1)N(C)C(=O)[C@H](CO)NC(=O)[C@@H](Cc1cccnc1)NC(=O)[C@@H](Cc1ccc(Cl)cc1)NC(=O)[C@@H](Cc1ccc2ccccc2c1)NC(=O)CNC(=O)c1ccccn1)C(=O)N[C@@H](CCCCNC(C)C)C(=O)N1CCC[C@H]1C(=O)N[C@H](C)C(N)=O [Example 2e, N-Picolyl-Gly-D2Nal-D4ClPhe-D3Pal-Ser-NMeTyr-DLys(N-epsilon-Nicotinyl) -Leu-Lys(N-epsilon-Isopropyl)-Pro-DAlaNH2] (Picolinoyl-G[d2Nal][dPhe(4-Cl)][d3Pal]S[NMeY][dK](Nicotinoyl)L[Lys(iPr)]P[dA]-NH2; N-terminus assumed) are within 1.5-fold of each other in Kb: 0.0282 nM for the first, 0.02 nM for the second.

CC(C)C[C@H](NC(=O)[C@@H](CCCCNC(=O)c1cccnc1)NC(=O)[C@H](Cc1ccc(O)cc1)N(C)C(=O)[C@H](CO)NC(=O)[C@@H](Cc1cccnc1)NC(=O)[C@@H](Cc1ccc(Cl)cc1)NC(=O)[C@@H](Cc1ccc2ccccc2c1)NC(=O)CNC(=O)c1cccnc1)C(=O)N[C@@H](CCCCNC(C)C)C(=O)N1CCC[C@H]1C(=O)N[C@H](C)C(N)=O [Example 2f, N-Nicotinyl-Gly-D2Nal-D4ClPhe-D3Pal-Ser-NMeTyr-DLys(N-epsilon-Nicotinyl) -Leu-Lys(N-epsilon-Isopropyl)-Pro-DAlaNH2] (Nicotinoyl-G[d2Nal][dPhe(4-Cl)][d3Pal]S[NMeY][dK](Nicotinoyl)L[Lys(iPr)]P[dA]-NH2) was tested, and the Kb was 0.00891 nM.
